In publication PMC6916019, “In vitro anti-malarial efficacy of chalcones: cytotoxicity profile, mechanism of action and their effect on erythrocytes” (Malaria Journal, 2019):
In brackets after ≈: the same amount, converted by molar mass.

Legend:
[1] = MTT cytotoxicity / cell viability assay; settings: human
Description: Cytotoxicity of the compounds on mammalian cells were accomplished employing HeLa cell line (NCCS, Pune) cultured in DMEM supplemented with 10% FBS by the MTT (3-(4,5-dimethylthiazol-2-yl)-2,5-diphenyltetrazolium bromide) microenzymatic method with certain modifications [32]. Briefly, cells (10^4 cells/200 μL/well) were seeded into 96-well flat-bottom sterile tissue culture plates in complete medium. After 24 h of seeding, the test compounds at different dilutions were added and kept for another 24 h in a humidified chamber with 5% CO2 at 37 °C. Twenty microlitres of MTT (5.00 mg/mL in 1XPBS) stock solution were pipetted into each well, mixed and incubated for at least 3–4 h. After incubation, the plates were centrifuged at 1500 rpm for 5 min. The supernatant was disposed cautiously and 100 μL of DMSO were added to each well to lyse the cell and dissolve the insoluble purple formazan product into a coloured solution. Absorbance was taken at 570 nm to determine formazan formation as a measurement of cell viability. Experiments were performed in triplicate.

[2] = Haemolysis assay on normal erythrocytes
Description: Briefly, fresh erythrocytes were centrifuged for 5 min at 1600 rpm for at least thrice in PBS and then the remaining pellet was re-suspended in PBS at 2% hematocrit. One hundred microlitres of this suspended pellet was added to 96-well sterile culture plate having test compounds at different desired concentrations. PBS alone (for baseline values) and 0.4% Triton X-100 in PBS (for 100% haemolysis) were employed as controls. After keeping at 37 °C for 3 h, the test samples were centrifuged and the supernatant was used for determination of the haemolytic activity quantified in terms of haemoglobin release as monitored spectrophotometrically by taking absorbance at 415 nm [33]. The experiment was done in triplicate and the mean ± SD was calculated [33, 34]. %Haemolysis=[Absorbanceofsample415nm-Absorbanceofblanksample415nm/Absorbanceofpositivecontrol415nm]∗100

[3] = test system: haemozoin (β-haematin) production in P. falciparum cultures; assay: Haemozoin inhibition assay in P. falciparum cultures; format: cell-based, Plasmodium falciparum; settings: drug near IC50 concentration, 48 h, untreated control 547.61 ± 9.52
Description: Briefly, the test cultures were centrifuged for 5–10 min at 1300 rpm to dispose of the culture medium. Infected erythrocyte pellet (mingled of β-haematin and erythrocyte membrane) were exposed to 0.01% saponin lysis for 10 min at 25 °C to lyse erythrocyte to release parasites. […] The haemozoin content was quantified by taking the absorbance at 400 nm and using a standard curve prepared from β-haematin. The amount of haemozoin formed in relation to control was calculated. All assays were performed in triplicate.

[4] = test system: P. falciparum chloroquine sensitive strain (MRC-2); assay: microbe, parasite or virus in culture; settings: Plasmodium falciparum, 24 h
Description: These strains were perpetuated in vitro in continuous culture according to the method of Trager and Jensen with slight modifications. Briefly, both sensitive and resistant strains of P. falciparum were maintained in A+ erythrocytes in RPMI-1640 medium (having glutamine, but without any sodium bicarbonate) comprising 1.00 g of dextrose, 5.94 g of HEPES buffer, 40.00 mg of gentamycin. Additionally supplemented with 5% sodium bicarbonate and 10% (v/v) inactivated human AB+ serum then incubated in gas mixture of 5% CO2, 5% O2 and 90% N2 at 37 °C. Parasitized erythrocytes at initial 5% haematocrit were suspended in above mentioned culture medium and parasitaemia was regularly checked to maintain level between 2 and 4% with further sub-culturing for parasitaemia beyond 5%. Growth and multiplication of parasite was monitored by microscopy using Giemsa-stained slides.
To obtain ring stages of the parasite, the cultures were synchronized using D-sorbitol. The cultures, with majority of ring stages, were treated with equal volume of aqueous 5% D-sorbitol for 5 min and then after centrifugation pellet were suspended in complete medium and fresh erythrocytes synchronized culture with 1% parasitaemia and 5% haematocrit were used for compound concentration response assay.
The concentration of each test compound needed to hinder multiplication of parasites by 50% (IC50) against P. falciparum strains were obtained through concentration response assay performed in 96-well sterile tissue culture plates. Synchronized parasite cultures were applied to different doses of each compound. Dilutions were performed in gentamycin-free culture medium, and incubated at 37 °C having gaseous mixture (5% CO2, 5% O2 and 90% N2) supply for 24 h. The results were expressed as IC50 values computed from HN-NonLin Regression analysis, as well as mean percentage inhibition ± standard error examined by thick smear Giemsa stained slides. %ParasiteInhibition29,30=100-TotalnumberofSchizontsintestwells/TotalnumberofSchizontsincontrolwell∗100
Parasite at ring stage was used for compound concentration response assay with parasitaemia of 1% at 5% haematocrit. […] The IC50 and IC90 values of all compounds were determined and the resistance index between the two sensitive and resistant strains was calculated (Table 2). […] The percentage inhibition in schizont maturation was also calculated after incubation of ring stage P. falciparum till 24 h at the same range of drug concentrations (Table 3).

IC50 ([4]; read-out: P. falciparum Chloroquine^s Strain (MRC-2) IC50): 0.17 µg/mL (≈ 0.531 µM)
IC90 ([4]; read-out: P. falciparum Chloroquine^s Strain (MRC-2) IC90): 1.14 µg/mL (≈ 3.56 µM)
SMILES: CCN(CC)CCCC(C)Nc1ccnc2cc(Cl)ccc12 (stereo not shown) [CHL, chloroquine, reference compound]
viability at 24 h, 12.5 µg/mL [1]: 58 ± 0.06%
hemolysis at 3 h, 12.5 μg/mL [2]: 0.86 ± 0.001%
Amount of haemozoin production [3]: 359.52 ± 2.38 ng/mL
Amount of haemozoin production ([3]; listed as chloroquine): 359.52 ± 2.38 ng/mL
inhibition at 6.25 µg/mL ([4]; read-out: % Schizont maturation inhibition ± SD (MRC-2)): 88.39 ± 0.71%
